# Patent US9387221B2, “SDF-1 binding nucleic acids and the use thereof in cancer treatment” (NOXXON Pharma AG, priority 2010, dated 2016)
# What was measured:
# [1] = tested on: biotinylated human D-SDF-1; test: Competitive pull-down binding assay; conditions: for binding affinity in competitive pull-down binding assay vs. 192-A10-001: aptamer level, reference 192-A10-001; for binding affinity of derivatives of 192-A10-001 in competitive pull-down binding assay: vs. 192-A10-001 and 192-A10-008; for binding affinity of derivatives of 193-G2-001 and 193-C2-001 in competitive pull-down binding assay: vs. 193-G2-001 and 193-G2-012
# Protocol: In order to compare different D-SDF-1 binding aptamers, a competitive ranking assay was performed. For this purpose the most affine aptamer available was radioactively labeled (see above) and served as reference. […] An excess of de- and renatured non-labeled D-RNA aptamer variants was added to different concentrations (e.g. 2, 10, and 50 nM) with the labeled reference aptamer to parallel binding reactions. The aptamers to be tested competed with the reference aptamer for target binding, thus decreasing the binding signal in dependence of their binding characteristics.
# [2] = molecular target: human SDF-1α (Homo sapiens, UniProt P48061); test: Surface plasmon resonance measurement (Biacore 2000); assay type: binding; conditions: Spiegelmer (L-RNA), 37° C.
# Chain of human SDF-1α (P48061 22-89): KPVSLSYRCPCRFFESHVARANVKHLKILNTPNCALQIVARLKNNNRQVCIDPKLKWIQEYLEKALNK
# Protocol: The Biacore 2000 instrument (Biacore AB, Uppsala, Sweden) was used to analyze binding of Spiegelmers to human SDF-1α. When coupling of human SDF-1α was to be achieved via amine groups, human SDF-1α was dialyzed against water for 1-2 h (Millipore VSWP mixed cellulose esters; pore size, […]) to remove interfering amines. CM4 sensor chips (Biacore AB, Uppsala, Sweden) were activated before protein coupling by a 35-μl injection of a 1:1 dilution of 0.4 M NHS and 0.1 M EDC at a flow of 5 μl/min. Human MCP-1 or human SDF-1α was then injected in concentrations of 0.1-1.5 μg/ml at a flow of 2 μl/min until the instrument's response was in the range of 1000-2000 RU (relative units). Unreacted NHS esters were deactivated by injection of 35 μl ethanolamine hydrochloride solution (pH 8.5) at a flow of 5 μl/min. The sensor chip was primed twice with binding buffer and equilibrated at 10 μl/min for 1-2 hours until the baseline appeared stable. For all proteins, kinetic parameters and dissociation constants were evaluated by a series of Spiegelmer injections at concentrations of 1000, 500, 250, 125, 62.5, 31.25, and 0 nM in selection buffer (Tris-HCl, 20 mM; NaCl, 137 mM; KCl, 5 mM; CaCl2, 1 mM; MgCl2, 1 mM; Tween20, 0.1% [w/v]; pH 7.4). In all experiments, the analysis was performed at 37° C. using the Kinject command defining an association time of 180 and a dissociation time of 360 seconds at a flow of 10 μl/min. Data analysis and calculation of dissociation constants (KD) was done with the BIAevaluation 3.0 software (BIACORE AB, Uppsala, Sweden) using the Langmuir 1:1 stochiometric fitting algorithm.
# [3] = tested on: biotinylated human D-SDF-1; test: Direct pull-down binding assay; conditions: aptamer (D-RNA), 37° C.; read-out: equilibrium binding constant KD, pull-down binding assay
# Protocol: The affinity of aptamers to biotinlayted human D-SDF-1 was measured in a pull-down binding assay format at 37° C. Aptamers were 5′-phosphate labeled by T4 polynucleotide kinase (Invitrogen, Karlsruhe, Germany) using [γ-^32P]-labeled ATP (Hartmann Analytic, Braunschweig, Germany). The specific radioactivity of labeled aptamers was 200,000-800,000 cpm/pmol. Aptamers were incubated after de- and renaturation at 10, 20, 30 or 40 pM concentration at 37° C. in selection buffer (20 mM Tris-HCl pH 7.4; 137 mM NaCl; 5 mM KCl; 1 mM MgCl2; 1 mM CaCl2; 0.1% [w/vol] Tween-20) together with varying amounts of biotinlayted human D-SDF-1 for 4-12 hours in order to reach equilibrium at low concentrations. Selection buffer was supplemented with 10 μg/ml human serum albumin (Sigma-Aldrich, Steinheim, Germany), and 10 μg/ml yeast RNA (Ambion, Austin, USA) in order to prevent adsorption of binding partners with surfaces of used plasticware or the immobilization matrix. The concentration range of biotinlayted human D-SDF-1 was set from 8 pM to 100 nM; total reaction volume was 1 ml. Peptide and peptide-aptamer complexes were immobilized on 1.5 μl Streptavidin Ultralink Plus particles (Pierce Biotechnology, Rockford, USA) which had been preequilibrated with selection buffer and resuspended in a total volume of 6 μl. Particles were kept in suspension for 30 min at the respective temperature in a thermomixer. Immobilized radioactivity was quantitated in a scintillation counter after detaching the supernatant and appropriate washing. The percentage of binding was plotted against the concentration of biotinlayted human D-SDF-1 and dissociation constants were obtained by using software algorithms (GRAFIT; Erithacus Software; Surrey U.K.) assuming a 1:1 stoichiometry.
# [4] = molecular target: SDF-1 (Homo sapiens, UniProt P48061); test: Inhibition of SDF-1-induced chemotaxis, Jurkat cells; assay type: cell-based; conditions: for IC50: Spiegelmer, Jurkat cells migrating towards 0.3 nM human SDF-1, 3 h, 37° C., read-out: IC50, cell culture in vitro chemotaxis assay; for influence of the PEG-moiety on Spiegelmers potency to inhibit SDF-1 induced chemotaxis: Spiegelmer coupled to 40 kDa PEG at the 5′-end
# Chain of SDF-1 (P48061 22-89): as above
# Protocol: The human T cell leukemia cell line Jurkat, the human leukemic monocyte lymphoma cell line U937, the human pre-B cell leukemia cell line BV-173 and human pre-B ALL cell line Nalm-6 express CXCR4. […] All cells used were obtained from the DSMZ (Braunschweig). All cell lines were cultivated at 37° C. and 5% CO2 in RPMI 1640 medium with Glutamax (Invitrogen, Karlsruhe, Germany) which contains 10% fetal bovine serum, 100 units/ml penicillin and 100 μg/ml streptomycin (Invitrogen, Karlsruhe, Germany). One day before the experiment, cells were seeded in a new T175 flask with a density of 0.3×10^6/ml (Jurkat, U937, BV-173) or 0.75×10^6/ml (Nalm-6), respectively.
# For the experiment, cells were centrifuged (5 min at 300 g), resuspended, counted and washed once with 15 ml HBH (Hanks balanced salt solution containing 1 mg/ml bovine serum albumin and 20 mM HEPES; Invitrogen, Karlsruhe, Germany). Then the cells were resuspended at 1.33×10^6/ml (Jurkat, U937, BV-173) or 2.67×10^6/ml (Nalm-6), respectively. Cells were then allowed to migrate through the porous membranes of the filter plates for three hours towards a solution containing SDF-1 and various amounts of Spiegelmer. The stimulation solutions (SDF-1+various concentrations of Spiegelmer) were made up as 10× solutions in a 0.2 ml low profile 96-tube plate. 212 μl HBH were pipetted into the lower compartments of the transport plate and 23.5 μl of the stimulation solutions were added. All conditions were made up as triplicates. After 20 to 30 min the filter plate was inserted into the plate containing the stimulation solutions and 75 μl of a cell suspension with 1.33×10^6/ml or 2.67×10^6/ml, respectively, were added to the wells of the filter plate (1×10^5 or 2×10^5 cells/well). The cells were then allowed to migrate for 3 h at 37° C. For calibration, 0, 10 and 30 μl of the cell suspension was added to 235, 225 and 205 μl HBH, respectively, in wells of a separate 96-well plate. After 3 hours incubation, the insert plate was removed and 30 μl resazurin working solution (440 μM in PBS) were added to the lower wells and to the wells of the calibration plate. The plates were then incubated at 37° C. for 2.5 h. After incubation, 100 μl of each well were transferred to a black 96 well plate.
# For evaluation, fluorescence values were corrected for background fluorescence (no cells in well). Then the difference between experimental conditions with and without SDF-1 was calculated. The value for the sample without Spiegelmer (SDF-1 only) was set 100% and the values for the samples with Spiegelmer were calculated as percent of this. For a dose-response curve the percent-values were plotted against Spiegelmer concentration and the IC50-value (concentration of Spiegelmer at which 50% of the activity without Spiegelmer is present) was determined graphically from the resulting curve.
substance,measurement,setting,value
"AGCGUGGCGAGGUUAGGGCUAGAAGUCGGUCGACACGCU (Made as D-RNA aptamer and L-RNA Spiegelmer, tested form not given here, further chemistry not given here) [191-D5-001]",binding affinity in competitive pull-down binding assay vs. 192-A10-001,[1],weaker binding affinities
same,Kd,[2],0.8 nM
AGCGUGGUGUGAUCUAGAUGUAUUGGCUGAUCCUAGUCAGGUACGCU (chemistry not fully specified) [193-G2-001],binding affinity in competitive pull-down binding assay vs. 192-A10-001,[1],superior binding
same,Kd,[3],0.3 nM
same,IC50,[4],0.08 nM
GCCGGGGUUAGGGCUAGAAGUCGGCCGGC (chemistry not fully specified) [197-B2-006],binding affinity of truncated derivatives of 197-B2,[1]; vs. 197-B2 and 191-D5-007,fully persisted
same,influence of the PEG-moiety on Spiegelmers potency to inhibit SDF-1 induced chemotaxis,[4],no influence
GCGUGAAAGCAACAUGUCAAUGAAAGGUAGCCGCGC (chemistry not fully specified) [192-A10-008],binding affinity of derivatives of 192-A10-001 in competitive pull-down binding assay,[1],same binding affinity as shown for 192-A10-002
same,influence of the PEG-moiety on Spiegelmers potency to inhibit SDF-1 induced chemotaxis,[4],no influence
GCGUGGUGUGAUCUAGAUGUAUUGGCUGAUCCUAGUCAGGUACGC (chemistry not fully specified) [193-G2-012],Kd,[3],0.3 nM
"GCUGUGAAAGCAACAUGUCAAUGAAAGGUAGCCGCAGC (aptamer; Made as D-RNA aptamer and L-RNA Spiegelmer, tested form not given here, further chemistry not given here) [192-A10-001]",Kd,[3],1.5 nM
same,IC50,[4],0.12 nM
GUGCAAAGCAACAUGUCAAUGAAAGGUAGCGCGC (aptamer; chemistry not given here) [192-A10-018],binding affinity of derivatives of 192-A10-001 in competitive pull-down binding assay,[1],"weaker, much weaker or very much weaker binding affinity"
GUGCUGCCGGGGUUAGGGCUAA-AGUCGGCCGACAGCAC (GUGCUGCCGGGGUUAGGGCUAAAGUCGGCCGACAGCAC; chemistry not given here) [197-D1],binding affinity in competitive pull-down binding assay vs. 192-A10-001,[1],Much weaker binding affinity
GUGCUGCGGGGGUUAGGGCUCAAAGUCGGCCUGCAGCAC (chemistry not given here) [197-H2],binding affinity in competitive pull-down binding assay vs. 192-A10-001,[1],Much weaker binding affinity
GUGCUGCGGGGGUUAGGGCUCGAAGUCGGCCCGCAGCAC (chemistry not given here) [197-H3],binding affinity in competitive pull-down binding assay vs. 192-A10-001,[1],weaker binding affinities
GUGCUGUGGGGGUCAGGGCUAGAAGUCGGCCUGCAGCAC (chemistry not given here) [197-D2],binding affinity in competitive pull-down binding assay vs. 192-A10-001,[1],Much weaker binding affinity
GUGGUGUGAUCUAGAUGUAGUGGCUGAUCCUAGUCAGGUAC (chemistry not fully specified) [193-C2-004],binding affinity of derivatives of 193-G2-001 and 193-C2-001 in competitive pull-down binding assay,[1],reduced binding affinity
GUGGUGUGAUCUAGAUGUAGUGGCUGUUCCUAGUCAGGUAUGC (chemistry not fully specified) [193-E3-002],binding to human SDF-1 in comparison to 193-G2-001,[1]; reference 193-G2-001,reduced binding
"GUGUGAUCUAGAUGUAGUGGCUGAUCCUAGUCAGG (Listed both as L-RNA Spiegelmer and D-RNA aptamer, further chemistry not given here) [193-C2-007]",binding affinity of derivatives of 193-G2-001 and 193-C2-001 in competitive pull-down binding assay,[1],reduced binding affinity
GUGUUCCCGGGGUUAGGGCUUGAAGUCGGCCGGCAGCAC (aptamer; chemistry not fully specified) [197-B1],binding affinity in competitive pull-down binding assay vs. 192-A10-001,[1],Much weaker binding affinity
GUGUUGCAGGGGUUAGGGCUUGAAGUCGGCCUGCAGCAC (chemistry not given here) [197-E3],binding affinity in competitive pull-down binding assay vs. 192-A10-001,[1],weaker binding affinities
GUGUUGCGGAGGUUAGGGCUAGAAGUCGGUCAGCAGCAC (chemistry not given here) [197-H1],binding affinity in competitive pull-down binding assay vs. 192-A10-001,[1],weaker binding affinities
UGAAAGCAACAUGUCAAUGAAAGGUAGCCG (chemistry not fully specified) [192-A10-005],binding affinity of derivatives of 192-A10-001 in competitive pull-down binding assay,[1],reduced binding affinity
"UGAGAUAGGGGUUAGGGCUUAAAGUCGGCUGAUUCUCA (aptamer; Made as D-RNA aptamer and L-RNA Spiegelmer, tested form not given here, further chemistry not given here) [190-A3-003]",binding affinity of derivatives of 190-A3-001,[1]; compared with 190-A3-001,does not have an influence on the binding affinity
"UGGUGUGAUCUAGAUGUAGUGGCUGAUCCUAGUCAGGUA (Made as D-RNA aptamer and L-RNA Spiegelmer, tested form not given here, further chemistry not given here) [193-C2-005]",binding affinity of derivatives of 193-G2-001 and 193-C2-001 in competitive pull-down binding assay,[1],reduced binding affinity
UGUGAAAGCAACAUGUCAAUGAAAGGUAGCCGCA (aptamer; chemistry not given here) [192-A10-003],binding affinity of derivatives of 192-A10-001 in competitive pull-down binding assay,[1],reduced binding affinity
